Assay results: patent US12503446B2, “Bromodomain inhibitors” (FORSCHUNGSZENTRUM JÜLICH GMBH, priority 2019, dated 2025)

How the values were obtained:
[1] = tested on: erythroleukaemia cell line HEL (JAK2V617F-positive); experiment: MTT assay, metabolic activity of HEL cells; type: cell-based; conditions: 1 μM, 72 h, DMSO control set to 100%
Method: All studies with the HEL, Molm-14 and K562 cell lines mentioned (sourced from DSMZ: ACC-11, ACC-10 and ACC-777) were conducted under germ-free conditions under a sterile hood. Incubation was effected at 37° C. in an incubator at a CO2 saturation of 5%. For the passage of the suspension cells, the cells were transferred in a Falcon prefilled with PBS (phosphate buffered saline) and centrifuged at 1200 rpm for 5 min. All three cell lines were cultured in RPMI-1640 medium (Gibco, Thermo Fischer Scientific, Darmstadt, Germany) with 10% FCS and 1% penicillin streptomycin.
The viability and metabolic activity of the cells were measured by the MTT assay. Yellow, water-soluble MTT (3-([…])-2,5-diphenyltetrazolium bromide) is a tetrazolium salt which is reduced to dark blue formazan in living cells. Insoluble formazan is released by addition of isopropanol-HCl, and its intensity can be determined by photometry at a wavelength of 550 nm. Thus, the proportion of living cells is measured by comparison with a particular control sample. The cells were counted and washed with PBS, and 30 000 cells per well were sown in triplicates in a 96-well plate. For the inhibitor treatment, the stated final concentrations were used. For this purpose, 10 µl of the appropriate inhibitor dilution was introduced into the 96-well plates, and then 90 μl of cell suspension was pipetted in. The plates were incubated in an incubator for 72 h (37° C., 5% CO2). After the incubation, 10 μl of MTT solution (5 mg/ml) was applied to the wells with a multichannel pipette and thoroughly resuspended. This was followed by incubation for 4 h in the dark at room temperature. Subsequently, the cells were resuspended in 100 μl of isopropanol-HCl and lysed, and absorption at a wavelength of 550 nm was measured by photometry with a plate reader (Kayto, RT-2100C).
The erythroleukaemia cell line HEL (JAK2V617F-positive), the AML cell line Molm-14 and the chronic myeloid leukaemia (CML) cell line K562 (BCR-ABL-positive) were used for cell experiments.
Compounds MF1-R, MF1-S, JHS1-R and JHS1-S were dissolved in DMSO, and each was used in concentrations of 0.1 μM, 1 μM, 10 μM and 20 μM. Correspondingly, DMSO was included in each case as a control treatment, and the metabolic activity thereof was set to 100%. The HEL, Molm-14 and K562 cell lines were treated with the respective compounds in the different concentrations and, after 72 h in culture, the metabolic activity, which gives information about the growth of the cells, was determined by means of MTT [3-(4,5-dimethylthiazol-2-yl)-2,5-diphenyltetrazolium bromide] assay.

Molm-14 cells [2] = experiment: Proliferation assay, cell count after trypan blue staining, Molm-14; type: cell-based; conditions: 1 or 5 μM, 24-72 h, by comparison with PFI-1
Method: Cell count and viability was determined after trypan blue staining. The appropriate concentrations of the inhibitors per ml of medium were added, or the correspondingly highest volume of DMSO was added as control group.
The cell growth described here is referred to as proliferation, and gives information as to the cell divisions that proceeded in the specified period.

[3] = tested on: mononuclear cells from AML patients; experiment: CFU assay, AML patients; type: cell-based, human
Method: With the aid of the CFU assay, it is possible to determine the colony-forming capacity of individual cells in a semisolid methylcellulose medium (MethoCult H4434, StemCell Technologies, Cologne, Germany). The number of colonies was determined after 7-11 days.
Mononuclear cells from the bone marrow from AML patients: 7×10^5 cells/ml
Vital sterile mononuclear bone marrow cells from AML patients were cultured for 24 h in 1.5 ml of BIT Medium in 8.5 ml of IMDM medium (to which had been added 5 μl of FLT3 ligand, 10 μl of rh SCF, 2 μl of rh IL-3, 2 μl of rh G-CSF, 50 μl of ciprofloxacin and 6.99 μl of β-mercaptoethanol in 1:100 dilution), before they were used in the CFU assay.
Individual cells in the CFU assay form cell colonies in culture after 12 days, unless the formation thereof is prevented by inhibitors.

Molm-14 cells [4] = experiment: Cell cycle analysis (propidium iodide, flow cytometry), Molm-14; type: cell-based; conditions: compared to PFI-1
Method: The influence of the inhibitors used on the cell cycle was examined by means of propidium iodide staining of the fixed cells. For this purpose, the cells were fixed with 95% ethanol at −20° C., RNA was destroyed by RNase (100 μg/ml) at 37° C. for […], and the DNA was stained by means of propidium iodide (50 μg/ml). Using a flow cytometer (Gallios (Beckman Coulter, Krefeld, Germany)), the cell cycle phases were analysed, and the data were evaluated by means of FlowJo Software (Version 10).
During the proliferation, the cells go through different stages of the cell cycle in which genomic DNA is replicated, the cell nucleus is broken down and cell division takes place, resulting in two identical cells.

SMILES: CN1Cc2cc(N=[S@@](C)(=O)c3ccccc3)ccc2NC1=O [MF2-S, (S)—N-(3-methyl-2-oxo-1,2,3,4-tetrahydroquinazolin-6-yl)-S-methyl-S-phenylsulfoximine]
- metabolic activity of HEL cells [1]: 37.24%±6.19
- cell proliferation (cell count) of Molm-14 (Molm-14 cells [2]): significantly reduced the cell proliferation
- colony count, AML patients, 1 μM versus 5 μM PFI-1 ([3]; 1 μM): just as efficient as 5 μM PFI-1
- colony count, AML patients ([3]; 1 μM and 5 μM, compared to PFI-1 at same concentration): reduced the colony count to a significantly greater degree than PFI-1
- subG1 phase (percentage of dead cells), Molm-14 (Molm-14 cells [4]): significantly higher proportions
- synthesis phase (S phase) of cell cycle, Molm-14 (Molm-14 cells [4]): more significantly inhibited by MF2-S than by PFI-1
